Test results taken from PubChem BioAssay (NCI).
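Values below derive from 48-hour exposures of cells grown in 96-well plates, with endpoints linearly interpolated between the two concentrations bracketing the appropriate inhibition level. At the TGI there is no net growth.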

Experiments:
Experiment in all cases: NCI anticancer screen, dose series, 48 h
[1] = tested on: 786-0 renal
[2] = tested on: A498 renal
[3] = tested on: A549 NSCLC
[4] = tested on: ACHN renal
[5] = tested on: BT-549 breast
[6] = tested on: CAKI-1 renal
[7] = tested on: CCRF-CEM leukemia
[8] = tested on: COLO 205 colon
[9] = tested on: DU-145 prostate
[10] = tested on: EKVX NSCLC
[11] = tested on: HCC-2998 colon
[12] = tested on: HCT-116 colon
[13] = tested on: HCT-15 colon
[14] = tested on: HL-60(TB) leukemia
[15] = tested on: HOP-62 NSCLC
[16] = tested on: HOP-92 NSCLC
[17] = tested on: HS 578T breast
[18] = tested on: HT29 colon
[19] = tested on: IGROV1 ovarian
[20] = tested on: K-562 leukemia
[21] = tested on: KM12 colon
[22] = tested on: LOX IMVI melanoma
[23] = tested on: M14 melanoma
[24] = tested on: MALME-3M melanoma
[25] = tested on: MCF7 breast
[26] = tested on: MDA-MB-231 breast
[27] = tested on: MDA-MB-435
[28] = tested on: MDA-N
[29] = tested on: MOLT-4 leukemia
[30] = tested on: NCI-H226 lung
[31] = tested on: NCI-H23 lung
[32] = tested on: NCI-H460 lung
[33] = tested on: NCI-H522 lung
[34] = tested on: NCI/ADR-RES ovarian
[35] = tested on: OVCAR-3 ovarian
[36] = tested on: OVCAR-4 ovarian
[37] = tested on: OVCAR-5 ovarian
[38] = tested on: OVCAR-8 ovarian
[39] = tested on: PC-3 prostate
[40] = tested on: RPMI-8226 leukemia
[41] = tested on: RXF 393 renal
[42] = tested on: SF-268 CNS
[43] = tested on: SF-295 CNS
[44] = tested on: SF-539 CNS
[45] = tested on: SK-MEL-2 melanoma
[46] = tested on: SK-MEL-28 melanoma
[47] = tested on: SK-MEL-5 melanoma
[48] = tested on: SK-OV-3 ovarian
[49] = tested on: SN12C renal
[50] = tested on: SNB-19 CNS
[51] = tested on: SNB-75 CNS
[52] = tested on: SR leukemia
[53] = tested on: SW-620 colon
[54] = tested on: T-47D breast
[55] = tested on: TK-10 renal
[56] = tested on: U251 CNS
[57] = tested on: UACC-257 melanoma
[58] = tested on: UACC-62 melanoma
[59] = tested on: UO-31 renal

SMILES: COc1ccc2ccccc2c1/C=C/C(=O)c1ccccc1
- TGI [1]: 11.9 µM
- TGI [2]: 10.9 µM
- TGI [3]: 10.4 µM
- TGI [4]: 11.1 µM
- TGI [5]: 14.7 µM
- TGI [6]: 15 µM
- TGI [7]: 4.17 µM
- TGI [8]: 9.76 µM
- TGI [9]: 8.89 µM
- TGI [10]: 12.1 µM
- TGI [11]: 3.07 µM
- TGI [12]: 11 µM
- TGI [13]: > 35.8 µM
- TGI [14]: 4.33 µM
- TGI [15]: 9 µM
- TGI [16]: 6.97 µM
- TGI [17]: 38.7 µM
- TGI [18]: 12.4 µM
- TGI [19]: 16.2 µM
- TGI [20]: 6.28 µM
- TGI [21]: 8 µM
- TGI [22]: 10.9 µM
- TGI [23]: 9.62 µM
- TGI [24]: 26.3 µM
- TGI [25]: 18.6 µM
- TGI [26]: 7.31 µM
- TGI [27]: 7.18 µM
- TGI [28]: 13.4 µM
- TGI [29]: 6.78 µM
- TGI [30]: 11.1 µM
- TGI [31]: 9.69 µM
- TGI [32]: 3.76 µM
- TGI [33]: 14.6 µM
- TGI [34]: > 54.8 µM
- TGI [35]: 7.23 µM
- TGI [36]: 9.4 µM
- TGI [37]: 22 µM
- TGI [38]: 11.2 µM
- TGI [39]: 13.9 µM
- TGI [40]: 4.07 µM
- TGI [41]: 3.88 µM
- TGI [42]: 17.9 µM
- TGI [43]: 15.6 µM
- TGI [44]: 7.23 µM
- TGI [45]: 3.64 µM
- TGI [46]: 17.9 µM
- TGI [47]: 16.1 µM
- TGI [48]: 11.2 µM
- TGI [49]: 11 µM
- TGI [50]: 12.4 µM
- TGI [51]: 4.01 µM
- TGI [52]: 2.55 µM
- TGI [53]: 6.53 µM
- TGI [54]: 8.32 µM
- TGI [55]: 7.45 µM
- TGI [56]: 4.98 µM
- TGI [57]: 16 µM
- TGI [58]: 9.35 µM
- TGI [59]: 9.36 µM
